Read-outs that look alike come from different tables or passages of the source.
Experiments:
[1] = system: histone H3 hyperacetylation in HeLa cervical carcinoma cells; assay: Cellular histone H3 hyperacetylation assay; type: cell-based; conditions: Homo sapiens, 24 h treatment
Source text: To assess the cellular efficacy of a histone deacetylase inhibitor in vitro, an assay is set up in black clear-bottom 96-well plates and optimized for use on the Cellomics “ArrayScan II” platform for a quantitative calculation of histone acetylation. The protocol uses a polyclonal rabbit antibody, specifically binding to acetylated lysine 1-20 (including K 9 and K14) of human histone H3 on fixed cells with an Alexa Fluor 488 labeled goat anti rabbit-IgG used for counterstaining 5×10^3 HeLa cervical carcinoma cells/well (ATCC CCL-2) in 200 μl Dulbecco's modified Eagle's medium (DMEM) containing 10% fetal calf serum are seeded at day 1 in Packard view plates and incubated for 24 h under standard cell culture conditions. On day 2, 1 μl test compound (200× final concentration) is added and incubation continued for further 24 h. On day 3, the culture medium is discarded and attached cells fixed for 15 min at room temperature by addition of 100 μl fixation buffer (3.7% v:v formaldehyde in phosphate buffered saline/PBS). After discarding the fixation buffer and one wash with blocking solution (1% BSA, 0.3% Tween 20 in PBS), cells are permeabilized at room temperature by addition of 100 μl /well permeabilization buffer (30.8 mM NaCl, 0.54 mM Na2HPO4, 0.31 mM KH2PO4, 0.1% v:v Triton X-100) for 15 min at room temperature. After discarding the permeabilization buffer and washing twice with 100 μl/well blocking solution at room temperature, the 1st antibody (anti-K1-20 histone H3 antibody, Calbiochem No. 382158) in blocking solution (50 μl/well) is added. After incubation for 1 h at room temperature, the wells are washed twice at room temperature with 100 μl/well blocking solution before addition of the 2nd antibody (goat-anti-rabbit Alexa Fluor 488; MoBiTec No. A -11008) in blocking solution (50 μl well). After further incubation for 1 h at room temperature, wells are washed twice with 100 μl/well blocking solution at room temperature. Finally, 100 μl/well PBS are added and image analysis performed on the Cellomics “ArrayScan II” platform. For EC50 determination, the percentage of positive cells showing nuclear fluorescence is determined and EC50 calculation done from concentration-effect curves by means of non-linear regression. For calibration, a positive (reference HDAC inhibitors like SAHA or NVP LBH-589) and a negative control were included.

A549 NSCLC cells [2] = assay: Cellular cytotoxicity assay (Alamar Blue), A549; type: cell-based; conditions: Homo sapiens, 72 h, upper end given as ≧100, read-out: IC50 (μM), cytotoxicity towards A549 NSCLC cells
Method in brief: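 Resazurin-to-resorufin fluorescence (ex 544, em 590 nm, after 4 h) gave viability as % of untreated cells following 72 h compound exposure at 37 °C. Compounds were added in semi-logarithmic dilutions 24 h post-seeding, quadruplicate wells; IC50 fitted by non-linear regression of concentration-effect curves.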

A549 NSCLC cells [3] = assay: Cell cycle analysis by flow cytometry; type: cell-based, human; conditions: A549, 24 h treatment
Procedure: A549 NSCLC cells (ATTC CCL-185) are cultivated in DMEM with high glucose (supplemented with 10% FBS) at 5% CO2 and 37° C. in a humidified atmosphere under standard cell culture conditions. 24 h before compound treatment, cells are seeded at 5×10^4 cells/ml (=5×10^5 cells/10 cm cell culture dish) to allow logarithmic proliferation during the experiment. After 24 h, cells were treated with test compound or 0.5 vol % DMSO as a control. After 24 h and 48 h treatment, the culture medium is collected and detached, floating cells are collected by short centrifugation (5 min at 1200 rpm). Attached cells are washed once with 5 ml PBS, detached by treatment with 3 ml trypsin/EDTA solution (short incubation for 3-5 min) and—together with detached, floating cells—transferred into 15 ml Falcon tubes. The cell culture dish is washed with 10 ml DMEM to collect all remaining cells. After centrifugation for 5 min at 1200 rpm at room temperature, the supernatant is discarded and the cell pellet washed twice with 10 ml PBS. The supernatant is discarded, the cells resuspended in 4 ml ice-cold fixation solution (70 vol % ethanol, 30 vol % H2O; stored at −20° C.) and stored at −20° C. overnight. Next, 10 ml PBS (4° C.) is added to the cells, before centrifugation for 5 min at 1200 rpm (4° C.). The supernatant is discarded, the cell pellet washed once with 10 ml PBS (4° C.) and the cell pellet finally resuspended in about 1 ml staining solution (10 μg/ml RNAse A, 10 μg/ml propidiumiodide in PBS, final volume dependent on cell number). After incubation for 30 min at room temperature in the dark, cells are stored on ice and analyzed using the Becton Dickinson FACS Canto device. Analysis is done at an excitation of λ=488 nm with emission set as λ=600 nm.
Data analysis: Cells are analyzed according to size, granularity and propidiumiodide intensity. Size and granularity of cells are determined by measurement of forward scatter (FSC) and side scatter (SSC) of the λ=488 nm excitation light, respectively. To discriminate cells with 4N DNA content from cell doublets (two attached cells with 2N DNA content each), the ratio between the area under the propidiumiodide peak (PE-A) and the height of the propidiumiodide peak (PE-H) for each cell is determined. Cell doublets need more time to pass through the laser beam, which causes a broadening of the propidiumiodide peak and an increase of the ratio PE-A/PE-H. Using this analysis, cells in 4N and cell doublets appear as distinct clouds in a scatter plot and are excluded from the analysis. Thus, the area under the propidiumiodide peak at λ=600 nm (PE-A) is a measure for the DNA content of the cells. PE-A is blotted against the measured cell number in a histogram in order to determine the percentage of analyzed cells in an individual stage of the cell cycle.

[4] = read-out: EC50, induction of histone H3 hyperacetylation
[5] = read-out: −lg EC50, induction of histone H3 hyperacetylation

Compound | EC50 [1, 4] | EC50 [1, 5] | IC50 (A549 NSCLC cells [2]) | concentration inducing arrest in G1, depletion of cells in the S-phase and reduction of cells in the G2/M-phase (A549 NSCLC cells [3])
Cc1ccc(C(=O)N2CCc3nc(C(=O)Nc4ccccc4N)sc3C2)cn1 [Example 96, N-(2-aminophenyl)-5-[(6-methylpyridin-3-yl)carbonyl]-4,5,6,7-tetrahydro-[1,3]thiazolo[5,4-c]pyridine-2-carboxamide] | 150 to 15000 nM | 251 to 15800 nM | ≥ 0.2 µM | 
Nc1ccccc1NC(=O)c1nc2c(s1)CN(C(=O)Nc1ccc3c(c1)OCO3)CC2 [Example 7, N^2-(2-aminophenyl)-N5-1,3-benzodioxol-5-yl-6,7-dihydro[1,3]thiazolo[5,4-c]pyridine-2,5(4H)-dicarboxamide] | 150 to 15000 nM | 251 to 15800 nM | ≥ 0.2 µM | 
Nc1ccccc1NC(=O)c1nc2c(s1)CN(C(=O)Nc1ccncc1)CC2 [Example 15, N^2-(2-aminophenyl)-N^5-pyridin-4-yl-6,7-dihydro[1,3]thiazolo[5,4-c]pyridine-2,5(4H)-dicarboxamide] | 150 to 15000 nM | 251 to 15800 nM | ≥ 0.2 µM | 
CN(C)c1ccc(NC(=O)N2CCc3nc(C(=O)Nc4ccccc4N)sc3C2)cn1 [Example 36, N^2-(2-aminophenyl)-N^5-[6-(dimethylamino)pyridin-3-yl]-6,7-dihydro[1,3]thiazolo[5,4-c]pyridine-2,5(4H)-dicarboxamide] | 150 to 15000 nM | 251 to 15800 nM | ≥ 0.2 µM | 
Cc1ccc(OCC(=O)N2CCc3nc(C(=O)Nc4ccccc4N)sc3C2)cc1 [Example 173, N-(2-aminophenyl)-5-[(4-methylphenoxy)acetyl]-4,5,6,7-tetrahydro[1,3]thiazolo[5,4-c]pyridine-2-carboxamide] | 150 to 15000 nM | 251 to 15800 nM | ≥ 0.2 µM | 
COc1ccc(OC(=O)N2CCc3nc(C(=O)Nc4ccccc4N)sc3C2)cc1 [Example 183, 4-methoxyphenyl 2-[(2-aminophenyl)carbamoyl]-6,7-dihydro[1,3]thiazolo[5,4-c]pyridine-5(4H)-carboxylate] | 150 to 15000 nM | 251 to 15800 nM | ≥ 0.2 µM | 
CS(=O)(=O)N1CCc2nc(C(=O)Nc3ccccc3N)sc2C1 [Example 154, N-(2-aminophenyl)-5-(methylsulfonyl)-4,5,6,7-tetrahydro[1,3]thiazolo[5,4-c]pyridine-2-carboxamide] | 150 to 15000 nM | 251 to 15800 nM | ≥ 0.2 µM | 
N#CN=C(NCc1ccccc1)N1CCc2nc(C(=O)Nc3ccccc3N)sc2C1 [Example 122, N-(2-aminophenyl)-5-[(benzylamino)(cyanoimino)methyl]-4,5,6,7-tetrahydro[1,3]thiazolo[5,4-c]pyridine-2-carboxamide] | 150 to 15000 nM | 251 to 15800 nM | ≥ 0.2 µM | 
Nc1ccccc1NC(=O)c1nc2c(s1)CN(C(=O)NCc1cccnc1)CC2 [Example 14, N^2-(2-aminophenyl)-N^5-(pyridin-3-ylmethyl)-6,7-dihydro[1,3]thiazolo[5,4-c]pyridine-2,5(4H)-dicarboxamide] | 150 to 15000 nM | 251 to 15800 nM | ≥ 0.2 µM | 

Further lines, with some results ahead:

EC50 [1, 4] | EC50 [1, 5] | Compound | IC50 (A549 NSCLC cells [2]) | concentration inducing arrest in G1, depletion of cells in the S-phase and reduction of cells in the G2/M-phase (A549 NSCLC cells [3])
150 to 15000 nM | 251 to 15800 nM | COc1ccc(S(=O)(=O)N2CCc3nc(C(=O)Nc4ccccc4N)sc3C2)cc1 [Example 153, N-(2-aminophenyl)-5-[(4-methoxyphenyl)sulfonyl]-4,5,6,7-tetrahydro[1,3]thiazolo[5,4-c]pyridine-2-carboxamide] | ≥ 0.2 µM | around 3 μM
150 to 15000 nM | 251 to 15800 nM | COc1ccc(NC(=O)N2CCc3nc(C(=O)Nc4ccccc4N)sc3C2)cc1OC [Example 19, N^2-(2-aminophenyl)-N^5-(3,4-dimethoxyphenyl)-6,7-dihydro[1,3]thiazolo[5,4-c]pyridine-2,5(4H)-dicarboxamide] | ≥ 0.2 µM | 
150 to 15000 nM | 251 to 15800 nM | Nc1ccccc1NC(=O)c1nc2c(s1)CN(c1ccc([N+](=O)[O-])cn1)CC2 [Example 194, N-(2-aminophenyl)-5-(5-nitropyridin-2-yl)-4,5,6,7-tetrahydro[1,3]thiazolo[5,4-c]pyridine-2-carboxamide] | ≥ 0.2 µM | 
150 to 15000 nM | 251 to 15800 nM | Nc1ccccc1NC(=O)c1nc2c(s1)CN(C(=O)COc1ccc(-c3ccccc3)cc1)CC2 [Example 176, N-(2-aminophenyl)-5-[(biphenyl-4-yloxy)acetyl]-4,5,6,7-tetrahydro[1,3]thiazolo[5,4-c]pyridine-2-carboxamide] | ≥ 0.2 µM | 
150 to 15000 nM | 251 to 15800 nM | CC(=O)N1CCc2nc(C(=O)Nc3ccccc3N)sc2C1 [Example 92, 5-acetyl-N-(2-aminophenyl)-4,5,6,7-tetrahydro[1,3]thiazolo[5,4-c]pyridine-2-carboxamide] | ≥ 0.2 µM | 
150 to 15000 nM | 251 to 15800 nM | COC(=O)N1CCc2nc(C(=O)Nc3ccccc3N)sc2C1 [Example 180, Methyl 2-[(2-aminophenyl)carbamoyl]-6,7-dihydro[1,3]thiazolo[5,4-c]pyridine-5(4H)-carboxylate] | ≥ 0.2 µM | 
150 to 15000 nM | 251 to 15800 nM | Cc1ccc(NC(=O)N2CCc3nc(C(=O)Nc4ccccc4N)sc3C2)cc1 [Example 13, N^2-(2-aminophenyl)-N^5-(4-methylphenyl)-6,7-dihydro[1,3]thiazolo[5,4-c]-pyridine-2,5(4H)-dicarboxamide] | ≥ 0.2 µM | 
150 to 15000 nM | 251 to 15800 nM | COc1ccc(OC(=O)N2CCc3nc(C(=O)Nc4ccccc4N)sc3C2)cc1OC [Example 186, 3,4-dimethoxyphenyl 2-[(2-aminophenyl)carbamoyl]-6,7-dihydro[1,3]thiazolo[5,4-c]pyridine-5(4H)-carboxylate] | ≥ 0.2 µM | 
150 to 15000 nM | 251 to 15800 nM | Cc1ccc(S(=O)(=O)Nc2cnc(N3CCc4nc(C(=O)Nc5ccccc5N)sc4C3)nc2)cc1 [Example 196, N-(2-aminophenyl)-5-(5-{[(4-methylphenyl)sulfonyl]amino}pyrimidin-2-yl)-4,5,6,7-tetrahydro[1,3]thiazolo[5,4-c]pyridine-2-carboxamide] | ≥ 0.2 µM | 
150 to 15000 nM | 251 to 15800 nM | Nc1ccccc1NC(=O)c1nc2c(s1)CN(C(=O)C=Cc1ccc(O)c(O)c1)CC2 [Example 191, N-(2-aminophenyl)-5-[3-(3,4-dihydroxyphenyl)prop-2-enoyl]-4,5,6,7-tetrahydro[1,3]thiazolo[5,4-c]pyridine-2-carboxamide] | ≥ 0.2 µM | 
